pEC50: −log10 of the molar value.
What was measured:
[1] = Artificial membrane permeability assay (PAMPA); format: in vitro ADME; details: 5 h incubation, first table
Description: In order to test the ability SDC-TRAP molecules of the invention to enter cells, an artificial membrane permeability assay (“PAMPA”) was used. […] LC/MS was used in conjunction with PAMPA assays to determine the ability of the SDC-TRAP molecules of the invention to permeate cells.
Pre-coated PAMPA plates were warmed to room temperature for at least 30 minutes prior to adding assay components.
Stock solutions were prepared with the SDC-TRAP molecules to be tested. In order to make a working solution, either 50 μL of 100 μM Stock in DMSO+950 μL of PBS or 50 μL of 200 μM stock was added to 96 deep well plate, resulting in a 5 μM final concentration or a 10 μM final concentration, respectively. 300 μL of the working solution containing each compound to be tested was added to the appropriate well of a donor PAMPA plate. 200 μL of PBS was added into the corresponding wells of an acceptor PAMPA plates.
The acceptor plate was lowered onto the donor plate and allowed to incubate for five hours. After five hours, a 50 μL aliquot was removed from each well of each plate and added into a new 96 deep-well plate.
100 μL of methanol containing an internal standard was added to each aliquot and analyzed by LC/MS. The internal standard was 150 ng/ml SDC-TRAP-0002.
In order to calculate the permeability for each SDC-TRAP molecule and the control molecules, the following formula was used:

[2] = system: MCF-7 breast cancer cells; test: Mouse xenograft efficacy in an MCF-7 breast cancer model; format: in vivo; details: FIG. 8
Description: MCF-7 breast cancer cells were purchased from ATCC. […] Fetal bovine serum was then added to the medium. The final concentration of fetal bovine serum was 10%. Cells were cultured at 37° C. and 5% CO2.
Mice that were not put on treatment were euthanized. Animals were sourced through CRL (Wilmington, Mass.).

[3] = Tissue distribution of SDC-TRAPs in tumor-bearing mice (plasma, tumor, heart); details: mouse, in vivo
Description: Using the 10 mM stock solutions of the SDC-TRAP molecule and its Hsp90i binding moiety and effector moiety in DMSO, spiking solutions were prepared at 0.025, 0.05, 0.1, 0.5, 1, 5, 10, 50, 100, 250, and 500 μM in DMSO. 5 μL of each spiking solution was added to a 96-deep well plate.
Quality control standards were prepared from 5 μL of 0.1, 1, and 10 μM calibration standard spiking solution added in triplicate into 96-deep well plate and adding 50 μL of matrix (plasma or homogenized tumor).
To prepare test samples, test plasma was diluted as needed using blank plasma. Tumor samples were pulverized in liquid nitrogen, weighed, and homogenized in PBS at 5× volume to sample weight. 50 μL of unknown plasma or homogenized tumor sample was mixed with 5 μL of DMSO. The samples were extracted by precipitating calibration standards, QC standards, and unknown samples with 200 μL of internal standard solution. The samples were mixed by vortex at room temperature for approximately 1.5 minutes, then centrifuge at 2-8° C. 150 μL of supernatant was collected and 25 μL of water added. Samples were mixed and analyzed by LC-MS/MS.
Samples of plasma, heart and tumor were excised from a euthanized mouse, homogenized in PBS at 5 times tissue weight and diluted in 5 μL DMSO/50 μL sample. Prior to analysis, 55 μL samples and calibration standards were precipitated in 200 μL methanol in 96-well plates. Samples were mixed on a vortex mixer for 1.5 minutes at 1500 rpm at room temperature, then centrifuged at 4400 rpm for 10 minutes at 8° C. 150 μL of each supernatant was transferred to a well of a new 96-well plate, and 25 μL of water was added and mixed with the sample. […] For the analysis of samples from female SCID mice, a gradient of solvent A (water/0.1% formic acid) and B (acetonitrile/0.1% formic acid) was used as in Table A below.

Hsp90α = biological target: T1, Hsp90α (Homo sapiens, UniProt P07900); test: Hsp90α binding assay (fluorescence polarization, FITC-labeled geldanamycin)
T1 construct: purchased BPS Bioscience 50294
Description: An Hsp90^α fluorescence assay kit from BPS Bioscience (Cat #50294) containing Hsp90 recombinant enzyme, FITC-labeled geldanamycin, assay buffer and a low binding 384-well plate was used to assay Hsp90^α binding. Dithiothreitol (DTT) (Cat # D0643) and bovine serum albumin (BSA) (Cat # A2153) were obtained from Sigma-Aldrich. Fluorescence polarization was measured using a PHERAstar microplate reader (BMG LABTECH GmbH, Ortenberg, Germany.)
The compounds were diluted to 1 mM in DMSO and loaded into a compound dilution plate to make 3-fold dilutions yielding a total of 8 concentrations. 1 μL of compound was transferred from the dilution plate to the low binding assay plate provided in the assay kit. 5 mL of Hsp90^α binding solution was prepared having a final concentration of 7 ng/μL Hsp90^α, 5 nM FITC-labeled geldanamycin, 2 mM DTT and 0.1 mg/mL BSA. 49 μL of binding solution was added to each microplate well, incubated at room temperature for 1 hour, then read using the PHERAstar microplate reader. The high control sample contained no compound plus Hsp90^α; the low control sample contained no compound and no Hsp90^α. […] The IC50 was calculated using GraphPad Prism 4 software.

[4] = Stability in mouse plasma; format: in vitro ADME; details: 1 h
Description: SDC-TRAP-0022 and SDC-TRAP-0028 were incubated in human and mouse plasma for 2 h at 37° C. and assayed for integrity at 0.25, 0.5, 1 and 2 h. The values reported below are the remaining of the parent compound at the end of the 2 h incubation period.
This solution was used to precipitate all plasma samples in the study. 200 μL was pipetted into a 96 deepwell plate over dry ice. 10 μL of 1 mM stock in DMSO was added to a 1.5 mL microfuge tube, then 990 μL of plasma. Samples were mixed by vortex, then 50 μL of each sample was added in triplicate to a 96-well plate containing internal standard solution. This was designated the 0 hour time point sample. 250 μL of the remaining plasma sample was added to each of four 96 deepwell plates—one per time point. Samples were incubated at 37° C. with gentle shaking for 0.25, 0.5, and 1 hour. After each time point, one plate of each sample was removed from the shaker and placed on wet ice for approximately 2 minutes. 50 μL plasma aliquots (in triplicate) were added to the deepwell plate containing internal standard solution. After the last time point was extracted, the 96 deepwell plate was vortexed, then centrifuged at 2-8° C. 150 μL of supernatant was collected and 25 μL of water was added. Samples were mixed and analyzed by LC-MS/MS.
The stability of seven SDC-TRAP types in mouse plasma was measured as follows. 990 μL mouse plasma aliquots from a common stock were spiked with 10 μL of 1 mM stock of one of seven SDC-TRAP samples identified in the table below. Each sample was mixed and divided into 250 μL aliquots, each representing time points 0, 15 minutes, 30 minutes or 1 hour. At the prescribed time point, 3×50 μL samples were each mixed with 200 μL of methanol containing internal standard and held on dry ice until all time point samples were extracted. The samples collectively were vortex mixed for 1.5 minutes at 1500 rpm, then centrifuged at 4400 rpm for 10 minutes at 8° C.

CC(C)c1cc(-c2nnc(O)n2-c2ccc3c(ccn3CCNC(=O)CCCCCNC(=O)CCCC[C@H]3SCC4NC(=O)NC43)c2)c(O)cc1O (stereo in doubt) [SDC-TRAP-0234, N-(2-(5-(3-(2,4-dihydroxy-5-isopropylphenyl)-5-hydroxy-4H-1,2,4-triazol-4-yl)-1H-indol-1-yl)ethyl)-6-(5-((3aR,4R,6aS)-2-oxohexahydro-1H-thieno[3,4-d]imidazol-4-yl)pentanamido)hexanamide] gave a Papp at 5 h [1] of 0.0123 ×10⁻⁶ cm/s.
In the case of CCc1c2c(nc3ccc(OC(=O)N4CCC(CCn5ccc6cc(-n7c(O)nnc7-c7cc(C(C)C)c(O)cc7O)ccc65)CC4)cc13)-c1cc3c(c(=O)n1C2)COC(=O)[C@]3(O)CC [SDC-TRAP-0063, 4,11-diethyl-4-hydroxy-3,14-dioxo-3,4,12,14-tetrahydro-1H-pyrano[3′,4′:6,7]indolizino[1,2-b]quinolin-9-yl 4-(2-(5-(3-(2,4-dihydroxy-5-isopropylphenyl)-5-hydroxy-4H-1,2,4-triazol-4-yl)-1H-indol-1-yl)ethyl)piperidine-1-carboxylate], the “Suppression of increase in tumor volume, higher versus lower dose” value ([2]; 150 mg/kg/1×wk compared to 100 mg/kg/1×wk) was “appears to prolong the suppression of increase in tumor volume compared to a lower dose”, the “Tumor growth suppression versus irinotecan alone or ganetespib plus irinotecan” value ([2]; 150 or 100 mg/kg/1×wk) was “greater tumor growth suppression than effector moiety irinotecan alone” and the “Selective targeting of tumor” value [3] was “selectively targets and accumulates in tumor cells”. The pEC50 (Hsp90α) was 6.80 and the “% Remaining” value ([4]; mouse, plasma, 10 μM) was 11.1%.
For CCc1c2c(nc3ccc(OC(=O)N(C)C4CCN(C(=O)CCn5ccc6cc(-n7c(O)nnc7-c7cc(C(C)C)c(O)cc7O)ccc65)CC4)cc13)-c1cc3c(c(=O)n1C2)COC(=O)C3(O)CC (centres unmarked) [SDC-TRAP-0184, 4,11-diethyl-4-hydroxy-3,14-dioxo-3,4,12,14-tetrahydro-1H-pyrano[3′,4′:6,7]indolizino[1,2-b]quinolin-9-yl (1-(3-(5-(3-(2,4-dihydroxy-5-isopropylphenyl)-5-hydroxy-4H-1,2,4-triazol-4-yl)-1H-indol-1-yl)propanoyl)piperidin-4-yl)(methyl)carbamate], the pEC50 (Hsp90α) was 7.06 and the “% Remaining” value ([4]; mouse plasma, 37° C.) was 18.0%.

Source: patent publication US10675360B2 (MADRIGAL PHARMACEUTICALS, INC., priority 2014, dated 2020)
